# Tests used:
# [1] = test system: monochoria (MOOVA, Monochoria vaginalis); experiment: Test A flooded greenhouse test, monochoria; format: in vivo; conditions: 14 d
# Text: (§1) Seeds of Asian sprangletop (LEPCH, Leptochloa chinensis), smallflower umbrella sedge (CYPDI, Cyperus difformis), monochoria (MOOVA, Monochoria vaginalis) and ducksalad (HETLI, Heteranthera limosa) were sown on the soil surface in four separate quadrants of 16-cm tubs filled with steam pasteurized Tama soil. Simultaneously, plantings of barnyardgrass (ECHCG, Echinochloa crus-galli), japonica rice (ORYSA, Oryza sativa) and late watergrass (ECHPH, Echinochloa phyllopogon) were established in separate “plug” flats. Plants were grown in a greenhouse using supplemental lighting to maintain a photoperiod of approximately 16 h; daytime and nighttime temperatures were approximately 27-30° C. and 24-27° C., respectively. After 8 d, barnyardgrass, rice and late watergrass plants were transplanted in 3 quadrants of separate tub, and the water level was adjusted to a final depth of 3 cm. Herbicide application of Cmpd. No. 1 and florpyrauxifen-benzyl (CAS Registry No. 1390661-72-9; 439.2 g/mol) timing was targeted at the 2.0 to 2.5 leaf stage and the plants were treated with test chemicals formulated in a non-phytotoxic solvent. Treated plants and controls were maintained in a greenhouse for 14 d, after which time all species were compared to controls and visually evaluated. Plant response ratings are summarized in Table A, and are based on a scale of 0 to 100 where 0 is no effect and 100 is complete control and is the mean of duplicate ratings. A dash (-) response means no test result.
# (§2) Colby's Equation was used to determine the herbicidal effects expected from the mixtures. Colby's Equation (Colby, S. R. “Calculating Synergistic and Antagonistic Responses of Herbicide Combinations,” Weeds 1967 15(1), pp 20-22) calculates the expected additive effect of herbicidal mixtures and for two active ingredients is of the form: Pa+b=Pa+Pb−(PaPb/100) wherein Pa+b is the percentage effect of the mixture expected from additive contribution of the individual components: • Pa is the observed percentage effect of the first active ingredient at the same use rate as in the mixture, and • Pb is the observed percentage effect of the second active ingredient at the same use rate as in the mixture. The results and additive effects expected from Colby's Equation are listed in Table A. Application rates are grams of active ingredient per hectare (g a.i./ha). “Obsd.” is the observed effect and “Exp.” is expected effect calculated from Colby's Equation.
# [2] = test system: ducksalad (HETLI, Heteranthera limosa); experiment: Test A flooded greenhouse test, ducksalad; format: in vivo; conditions: 14 d
# Text: as §1, §2
# [3] = test system: barnyardgrass (ECHCG, Echinochloa crus-galli); experiment: Test A flooded greenhouse test, barnyardgrass; format: in vivo; conditions: 14 d
# Text: as §1, §2
# [4] = test system: late watergrass (ECHPH, Echinochloa phyllopogon); experiment: Test A flooded greenhouse test, late watergrass; format: in vivo; conditions: 14 d
# Text: as §1, §2
# [5] = test system: japonica rice (ORYSA, Oryza sativa); experiment: Test A flooded greenhouse test, japonica rice (crop); format: in vivo
# Text: as §1
# Colby's Equation was used to determine the herbicidal effects expected from the mixtures. […] “Obsd.” is the observed effect and “Exp.” is expected effect calculated from Colby's Equation.
# [6] = test system: Asian sprangletop (LEPCH, Leptochloa chinensis); experiment: Test A flooded greenhouse test, Asian sprangletop; format: in vivo; conditions: 14 d
# Text: as §1, §2
# [7] = test system: smallflower umbrella sedge (CYPDI, Cyperus difformis); experiment: Test A flooded greenhouse test, smallflower umbrella sedge; format: in vivo; conditions: 14 d
# Text: as §1, §2
# [8] = test system: pigweed (Amaranthus retroflexus); experiment: Test B preemergence, pigweed; format: in vivo; conditions: approximately 10 d
# Text: (§3) Seeds of plant species selected from barnyardgrass (Echinochloa crus-galli), kochia (Kochia scoparia), ragweed (common ragweed, Ambrosia elatior), Ryegrass, Italian (Italian ryegrass, Lolium multiflorum), foxtail, green (green foxtail, Setaria viridis), and pigweed (Amaranthus retroflexus) were planted into a blend of loam soil and sand and treated preemergence with a directed soil spray using test chemicals formulated in a non-phytotoxic solvent mixture which included a surfactant.
# (§4) At the same time, plants selected from these weed species and also wheat (Triticum aestivum), corn (Zea mays), blackgrass (Alopecurus myosuroides), and galium (catchweed bedstraw, Galium aparine) were planted in pots containing the same blend of loam soil and sand and treated with postemergence applications of test chemicals formulated in the same manner. Plants ranged in height from 2 to 10 cm and were in the one- to two-leaf stage for the postemergence treatment. Treated plants and untreated controls were maintained in a greenhouse for approximately 10 d, after which time all treated plants were compared to untreated controls and visually evaluated for injury. Plant response ratings, summarized in Table B, are based on a 0 to 100 scale where 0 is no effect and 100 is complete control. A dash (-) response means no test result.
# [9] = test system: foxtail, green (green foxtail, Setaria viridis); experiment: Test B preemergence, green foxtail; format: in vivo; conditions: approximately 10 d
# Text: as §3, §4
# [10] = test system: Ryegrass, Italian (Italian ryegrass, Lolium multiflorum); experiment: Test B postemergence, Italian ryegrass; format: in vivo; conditions: approximately 10 d
# Text: as §3, §4
# [11] = test system: sedge, umbrella (small-flower umbrella sedge, Cyperus difformis); experiment: Test C flooded paddy test, umbrella sedge; format: in vivo; conditions: Flood; 250 g ai/ha; 13 to 15 d
# Protocol: (§5) Test C Plant species in the flooded paddy test selected from rice (Oryza sativa), sedge, umbrella (small-flower umbrella sedge, Cyperus difformis), ducksalad (Heteranthera limosa), and barnyardgrass (Echinochloa crus-galli) were grown to the 2-leaf stage for testing. At time of treatment, test pots were flooded to 3 cm above the soil surface, treated by application of test compounds directly to the paddy water, and then maintained at that water depth for the duration of the test. Treated plants and controls were maintained in a greenhouse for 13 to 15 d, after which time all species were compared to controls and visually evaluated. Plant response ratings, summarized in Table C, are based on a scale of 0 to 100 where 0 is no effect and 100 is complete control. A dash (-) response means no test result.
# kochia (Kochia scoparia) [12] = experiment: Test B postemergence, kochia; format: in vivo; conditions: approximately 10 d
# Text: as §3, §4
# [13] = test system: ducksalad (Heteranthera limosa); experiment: Test C flooded paddy test, ducksalad; format: in vivo; conditions: Flood; 250 g ai/ha; 13 to 15 d
# Protocol: as §5
# kochia (Kochia scoparia) [14] = experiment: Test B preemergence, kochia; format: in vivo; conditions: approximately 10 d
# Text: as §3, §4
# [15] = test system: pigweed (Amaranthus retroflexus); experiment: Test B postemergence, pigweed; format: in vivo; conditions: approximately 10 d
# Text: as §3, §4
# corn (Zea mays) = experiment: Test B postemergence, corn; format: in vivo; conditions: approximately 10 d
# Text: as §3, §4
# [16] = test system: barnyardgrass (Echinochloa crus-galli); experiment: Test B preemergence, barnyardgrass; format: in vivo; conditions: approximately 10 d
# Text: as §3, §4
# [17] = test system: galium (catchweed bedstraw, Galium aparine); experiment: Test B postemergence, galium; format: in vivo; conditions: approximately 10 d
# Text: as §3, §4
# [18] = test system: wheat (Triticum aestivum); experiment: Test B postemergence, wheat; format: in vivo; conditions: approximately 10 d
# Text: as §3, §4
# [19] = test system: Ryegrass, Italian (Italian ryegrass, Lolium multiflorum); experiment: Test B preemergence, Italian ryegrass; format: in vivo; conditions: approximately 10 d
# Text: as §3, §4
# [20] = test system: barnyardgrass (Echinochloa crus-galli); experiment: Test B postemergence, barnyardgrass; format: in vivo; conditions: approximately 10 d
# Text: as §3, §4
# rice (Oryza sativa) = conditions: in vivo
# Protocol: as §5
# [21] = test system: ragweed (common ragweed, Ambrosia elatior); experiment: Test B postemergence, ragweed; format: in vivo; conditions: approximately 10 d
# Text: as §3, §4
# [22] = test system: blackgrass (Alopecurus myosuroides); experiment: Test B postemergence, blackgrass; format: in vivo; conditions: approximately 10 d
# Text: as §3, §4
# [23] = test system: ragweed (common ragweed, Ambrosia elatior); experiment: Test B preemergence, ragweed; format: in vivo; conditions: approximately 10 d
# Text: as §3, §4
# [24] = test system: foxtail, green (green foxtail, Setaria viridis); experiment: Test B postemergence, green foxtail; format: in vivo; conditions: approximately 10 d
# Text: as §3, §4
# [25] = test system: barnyardgrass (Echinochloa crus-galli); experiment: Test C flooded paddy test, barnyardgrass; format: in vivo; conditions: Flood; 250 g ai/ha; 13 to 15 d
# Protocol: as §5
# [26] = florpyrauxifen-benzyl 2 g a.i./ha alone
# [27] = florpyrauxifen-benzyl 4 g a.i./ha alone
compound,measurement,setting,value
CN1C[C@H](c2cccc(C(F)(F)F)c2)[C@@H](C(=O)Nc2ccccc2F)C1=O [Cmpd. No. 1],MOOVA Obsd. plant response rating (0 to 100),[1]; Cmpd. No. 1 50 g a.i./ha alone,70
same,MOOVA Obsd. plant response rating (0 to 100),[1]; Cmpd. No. 1 75 g a.i./ha alone,70
same,HETLI Obsd. plant response rating (0 to 100),[2]; Cmpd. No. 1 50 g a.i./ha alone,70
same,HETLI Obsd. plant response rating (0 to 100),[2]; Cmpd. No. 1 75 g a.i./ha alone,70
same,ECHCG Obsd. plant response rating (0 to 100),[3]; Cmpd. No. 1 50 g a.i./ha alone,70
same,ECHCG Obsd. plant response rating (0 to 100),[3]; Cmpd. No. 1 75 g a.i./ha alone,70
same,ECHPH Obsd. plant response rating (0 to 100),[4]; Cmpd. No. 1 50 g a.i./ha alone,75
same,ECHPH Obsd. plant response rating (0 to 100),[4]; Cmpd. No. 1 75 g a.i./ha alone,85
same,ORYSA Obsd. plant response rating (0 to 100),[5]; in vivo,0
same,LEPCH Obsd. plant response rating (0 to 100),[6]; Cmpd. No. 1 50 g a.i./ha alone,75
same,LEPCH Obsd. plant response rating (0 to 100),[6]; Cmpd. No. 1 75 g a.i./ha alone,85
same,CYPDI Obsd. plant response rating (0 to 100),[7]; Cmpd. No. 1 50 g a.i./ha alone,0
same,CYPDI Obsd. plant response rating (0 to 100),[7]; Cmpd. No. 1 75 g a.i./ha alone,0
Cc1cc([C@H]2CN(C)C(=O)[C@@H]2C(=O)Nc2cccc(F)c2F)cc(OC(F)F)n1 [Cmpd. No. 4],Pigweed plant response rating (0 to 100),[8]; 31 g ai/ha,40
same,Pigweed plant response rating (0 to 100),[8]; 125 g ai/ha,90
same,"Foxtail, Green plant response rating (0 to 100)",[9]; 31 g ai/ha,100
same,"Foxtail, Green plant response rating (0 to 100)",[9]; 125 g ai/ha,100
same,"Ryegrass, Italian plant response rating (0 to 100)",[10]; 31 g ai/ha,30
same,"Ryegrass, Italian plant response rating (0 to 100)",[10]; 125 g ai/ha,70
same,"Sedge, Umbrella plant response rating (0 to 100)",[11],0
same,Kochia plant response rating (0 to 100),kochia (Kochia scoparia) [12]; 31 g ai/ha,0
same,Kochia plant response rating (0 to 100),kochia (Kochia scoparia) [12]; 125 g ai/ha,20
same,Ducksalad plant response rating (0 to 100),[13],100
same,Kochia plant response rating (0 to 100),kochia (Kochia scoparia) [14]; 31 g ai/ha,0
same,Kochia plant response rating (0 to 100),kochia (Kochia scoparia) [14]; 125 g ai/ha,80
same,Pigweed plant response rating (0 to 100),[15]; 31 g ai/ha,20
same,Pigweed plant response rating (0 to 100),[15]; 125 g ai/ha,60
same,Corn plant response rating (0 to 100),corn (Zea mays); 31 g ai/ha,60
same,Corn plant response rating (0 to 100),corn (Zea mays); 125 g ai/ha,80
same,Barnyardgrass plant response rating (0 to 100),[16]; 31 g ai/ha,100
same,Barnyardgrass plant response rating (0 to 100),[16]; 125 g ai/ha,100
same,Galium plant response rating (0 to 100),[17]; 31 g ai/ha,0
same,Galium plant response rating (0 to 100),[17]; 125 g ai/ha,60
same,Wheat plant response rating (0 to 100),[18]; 31 g ai/ha,40
same,Wheat plant response rating (0 to 100),[18]; 125 g ai/ha,70
same,"Ryegrass, Italian plant response rating (0 to 100)",[19]; 31 g ai/ha,30
same,"Ryegrass, Italian plant response rating (0 to 100)",[19]; 125 g ai/ha,90
same,Barnyardgrass plant response rating (0 to 100),[20]; 31 g ai/ha,80
same,Barnyardgrass plant response rating (0 to 100),[20]; 125 g ai/ha,90
same,Rice plant response rating (0 to 100),rice (Oryza sativa),30
same,Ragweed plant response rating (0 to 100),[21]; 31 g ai/ha,0
same,Ragweed plant response rating (0 to 100),[21]; 125 g ai/ha,60
same,Blackgrass plant response rating (0 to 100),[22]; 31 g ai/ha,60
same,Blackgrass plant response rating (0 to 100),[22]; 125 g ai/ha,70
same,Ragweed plant response rating (0 to 100),[23]; 31 g ai/ha,0
same,Ragweed plant response rating (0 to 100),[23]; 125 g ai/ha,20
same,"Foxtail, Green plant response rating (0 to 100)",[24]; 31 g ai/ha,70
same,"Foxtail, Green plant response rating (0 to 100)",[24]; 125 g ai/ha,90
same,Barnyardgrass plant response rating (0 to 100),[25],85
"COc1c(Cl)ccc(-c2nc(C(=O)OCc3ccccc3)c(Cl)c(N)c2F)c1F [florpyrauxifen-benzyl, 2-pyridinecarboxylic acid, 4-amino-3-chloro-6-(4-chloro-2-fluoro-3-methoxyphenyl)-5-fluoro-, phenylmethyl ester, reference compound]",MOOVA Obsd. plant response rating (0 to 100),[1]; [26],90
same,MOOVA Obsd. plant response rating (0 to 100),[1]; [27],100
same,HETLI Obsd. plant response rating (0 to 100),[2]; [26],90
same,HETLI Obsd. plant response rating (0 to 100),[2]; [27],100
same,ECHCG Obsd. plant response rating (0 to 100),[3]; [26],0
same,ECHCG Obsd. plant response rating (0 to 100),[3]; [27],0
same,ECHPH Obsd. plant response rating (0 to 100),[4]; [26],0
same,ECHPH Obsd. plant response rating (0 to 100),[4]; [27],0
same,ORYSA Obsd. plant response rating (0 to 100),"[5]; florpyrauxifen-benzyl 2 g a.i./ha alone, 14 d",0
same,ORYSA Obsd. plant response rating (0 to 100),"[5]; florpyrauxifen-benzyl 4 g a.i./ha alone, 14 d",0
same,LEPCH Obsd. plant response rating (0 to 100),[6]; [26],0
same,LEPCH Obsd. plant response rating (0 to 100),[6]; [27],0
same,CYPDI Obsd. plant response rating (0 to 100),[7]; [26],80
same,CYPDI Obsd. plant response rating (0 to 100),[7]; [27],85
